The record followed here is patent US20240368168A1, “SARM1 ENZYME ACTIVITY INHIBITOR AND APPLICATION THEREOF” (ARTIVILA BIOPHARMA, priority 2021, published 2024).

Test [1] deals with T1, dN-SARM1 protein (Homo sapiens, UniProt Q6SZW1).
T1 construct: the N-terminal mitochondrial localization signal peptide of SARM1 was removed
T1 sequence (Q6SZW1 28-724): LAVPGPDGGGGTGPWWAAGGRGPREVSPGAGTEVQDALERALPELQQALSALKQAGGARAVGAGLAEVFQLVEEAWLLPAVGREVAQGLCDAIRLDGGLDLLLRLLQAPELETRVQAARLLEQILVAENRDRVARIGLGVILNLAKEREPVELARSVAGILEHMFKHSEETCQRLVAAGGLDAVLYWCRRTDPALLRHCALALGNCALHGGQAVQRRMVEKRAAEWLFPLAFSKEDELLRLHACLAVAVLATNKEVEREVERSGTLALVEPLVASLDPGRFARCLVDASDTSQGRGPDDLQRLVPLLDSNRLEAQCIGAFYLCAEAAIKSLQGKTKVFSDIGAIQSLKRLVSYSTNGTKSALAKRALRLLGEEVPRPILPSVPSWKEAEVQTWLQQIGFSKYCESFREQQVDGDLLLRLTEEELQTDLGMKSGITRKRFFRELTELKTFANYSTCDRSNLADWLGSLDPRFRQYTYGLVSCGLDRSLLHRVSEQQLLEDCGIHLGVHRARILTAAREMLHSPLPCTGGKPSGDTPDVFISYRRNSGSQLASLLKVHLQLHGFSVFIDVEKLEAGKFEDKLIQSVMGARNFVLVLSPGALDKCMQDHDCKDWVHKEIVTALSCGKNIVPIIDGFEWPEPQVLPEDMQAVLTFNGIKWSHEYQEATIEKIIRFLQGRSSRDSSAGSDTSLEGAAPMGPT
The test is described as follows: In vitro biochemical assay for inhibiting SARM1 enzymatic activity (% inhibition rate), PC6 fluorescence method. To be noted: 20 μM compound; 50 μM NAD, 50 μM PC6, 50 μM NMN activator. The protocol: The compounds were subjected to PC6 fluorescence method measurement [Chinese Patent 202010528147.3] using the dN-SARM1 protein obtained through “(4) Protein extraction” in “Expression and purification of SARM1 protein” in the above biological activity example 1.
First, 0.05 μg/ml dN-SARM1 and 20 μM compound were incubated in 50 mM Tris-HCl (pH 7.5) solution for 10 min, and then added with 50 μM NAD and 50 μM PC6 as substrate and 50 μM NMN as activator for 30 minutes of reaction at room temperature. The concentration of each component was the final concentration in the reaction system.
During the reaction, PC6 fluorescence spectrum dynamics were detected by a microplate reader, wherein the excitation wavelength and emission wavelength for detection were 390 nm and 520 nm, respectively. Finally, the reaction rate was used to express the activity of the protein. The higher the reaction rate, the stronger the activity of the protein and the lower the inhibitory efficiency of the compound.

Test [2] has as its target T1, dN-SARM1 protein. The test is described as follows: In vitro biochemical assay for inhibiting SARM1 enzymatic activity (IC50), PC6 fluorescence method. The following applies: 50 μM NAD, 50 μM PC6, 50 μM NMN activator. An outline of the steps: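 Activity read as the rate of PC6 fluorescence change (390 nm excitation, 520 nm emission) over a 30 min room-temperature reaction containing final 50 μM each of NAD, PC6 and NMN activator. Enzyme, 0.05 μg/ml dN-SARM1 in 50 mM Tris-HCl pH 7.5, first incubated 10 min with compound diluted serially from 200 μM; IC50 calculated.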

Test [3] has as its target T2, SARM1 protein in iSARM1 (HEK293) cells (Homo sapiens, UniProt Q6SZW1).
T2 construct: The full-length SARM1 was synthesized into the pUC57 plasmid by WZ Biosciences Inc., and PCR was performed using pUC57-SARM1 as a DNA template
T2 sequence (Q6SZW1 28-724): T1 sequence (Q6SZW1 28-724)
As to the kind of experiment: Inhibitory activity in inducible SARM1 overexpressing cell line, intracellular cADPR level. To be noted: activator CZ-48 100 μM, cADPR content. The format is cell-based. An outline of the steps: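 Inducible SARM1-overexpressing HEK293 cells preincubated 1.5 h with inhibitor (50 μM final), then activated with 100 μM CZ-48 for 16 h. Intracellular cADPR extracted with perchloric acid, NAD+ removed by NADase, and quantified by cyclase-coupled resazurin cycling assay (Ex/Em 544/599, 30 min kinetics) against cADPR standards; inhibition rate and IC50 calculated.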

With `CNc1ccc2ncc(Br)n2n1` [Compound 1, 3-bromo-N-methylimidazo[1,2-b]pyridazin-6-amine], in test [1], the inhibition at 20 µM is above 90%.
As to `Nc1cn2c(-c3ccccc3)cnc2cc1Cl` [Compound 19], the inhibition at 20 µM in test [1] was above 90%.
Same read-out and setting: the figure for `CC(C)(C)OC(=O)Nc1ccc2ncc(-c3ccccc3)n2n1` [Compound 22] is 50 to 89%.
On to `CCOC(=O)c1ccc2ncc(-c3ccccc3)n2c1` [Compound 24], for which the inhibition at 20 µM in test [1] is above 90%. In test [2], this compound showed an IC50 of 1000 to 10000 nM.
Regarding `COc1ccn2c(-c3ccccc3)cnc2c1` [Compound 26], the inhibition at 20 µM in test [1] was above 90%. The IC50 in test [2] is below 1000 nM.
For `COc1cccn2c(-c3ccccc3)cnc12` [Compound 27], the inhibition at 20 µM in test [1] lay within 50 to 89%. The IC50 in test [2] is 1000 to 10000 nM.
In test [1], `Ic1cccc2ncc(I)n12` [Compound 28] yielded an inhibition at 20 µM of 50 to 89%.
In test [1], `CN1CCN(c2ccc3nccn3c2)CC1` [Compound 35] registered an inhibition at 20 µM of 50 to 89%.
With `CN1CCN(c2ccc3ncc(-c4ccccc4)n3c2)CC1` [Compound 37], the inhibition at 20 µM in test [1] is 50 to 89%. The compound also showed a half-inhibitory concentration (IC50) in test [2] of 1000 to 10000 nM.
`CN(C(=O)OC(C)(C)C)c1ccc2ncc(-c3ccnc(N)c3)n2c1` [Compound 41] gave an inhibition at 20 µM in test [1] above 90%. In test [2], this compound came in with an IC50 of 1000 to 10000 nM.
In test [1], `CC(C)(C)OC(=O)Nc1ccc2ncc(-c3cccc(N)c3)n2c1` [Compound 46] gave an inhibition at 20 µM above 90%. Moreover, in test [2], the IC50 lay within 1000 to 10000 nM.
As for `CN1CCC(C(=O)Nc2cccc(-c3cnc4ccc(N(C)C(=O)OC(C)(C)C)cn34)c2)CC1` [Compound 48], the inhibition at 20 µM in test [1] is 50 to 89%.
Compound `COCCOCC(=O)Nc1cccc(-c2cnc3ccc(C)cn23)c1` [Compound 53] showed an inhibition at 20 µM in test [1] above 90%. Besides, the half-inhibitory concentration (IC50) in test [2] fell in the range of 1000 to 10000 nM.
`Cc1ccc2ncc(-c3cccc(NC(=O)C4CCOCC4)c3)n2c1` [Compound 54] had an inhibition at 20 µM in test [1] above 90%. Also, the half-inhibitory concentration (IC50) in test [2] is below 1000 nM.
`CC(C)(C)Oc1ccc2ncc(-c3cccc(NC(=O)C4CCOCC4)c3)n2c1` [Compound 55] came in with an inhibition at 20 µM in test [1] above 90%. In test [2], this compound displayed an IC50 of 1000 to 10000 nM.
For `COCCOCC(=O)Nc1cccc(-c2cnc3ccc(N4CCOCC4)cn23)c1` [Compound 56], in test [1], the inhibition at 20 µM was above 90%. This compound returned an IC50 in test [2] below 1000 nM.
`O=C(Nc1cccc(-c2cnc3ccc(N4CCOCC4)cn23)c1)C1CCOCC1` [Compound 57]: the inhibition at 20 µM in test [1] is above 90%. Besides, in test [2], the half-maximal inhibitory concentration (IC50) is below 1000 nM.
In test [1], `COCCOCC(=O)Nc1cccc(-c2cnc3ccc(NC(=O)OC(C)(C)C)cn23)c1` [Compound 58, tert-butyl (3-(3-(2-(2-methoxyethoxy)acetamido)phenyl)imidazo[1,2-a]pyridin-6-yl)carbamate] yielded an inhibition at 20 µM of 50 to 89%. Besides, in test [2], the IC50 is below 1000 nM.
For `CNc1ccc2ncc(-c3cccc(NC(=O)COCCOC)c3)n2c1` [Compound 77], the inhibition at 20 µM in test [1] was above 90%. In test [2], the IC50 was in the range of 1000 to 10000 nM.
With `CN(C)c1ccc2ncc(-c3ccccc3)n2n1` [Compound 94, N,N-dimethyl-3-phenylimidazo[1,2-b]pyridazin-6-amine], the inhibition at 20 µM in test [1] was above 90%. The IC50 in test [2] was below 1000 nM.
The compound `CN(C(=O)OC(C)(C)C)c1ccc2ncc(-c3ccccc3)n2n1` [Compound 95, tert-butyl methyl(3-phenylimidazo[1,2-b]pyridazin-6-yl) carbamate] showed an inhibition at 20 µM in test [1] of 50 to 89%.
Take `COCCOCCNS(=O)(=O)c1cccc(-c2cnc3ccc(N(C)C(=O)OC(C)(C)C)cn23)c1` [Compound 108, tert-butyl (3-(3-(N-(2-(2-methoxyethoxy)ethyl)sulfamoyl)phenyl)imidazo[1,2-a]pyridin-6-yl)(methyl)carbamate]: the inhibition at 20 µM in test [1] lay within 50 to 89%. Besides, in test [2], the half-maximal inhibitory concentration (IC50) lay within 1000 to 10000 nM.
As to `CNc1ccc2ncc(-c3cccc(S(=O)(=O)NCCOCCOC)c3)n2c1` [Compound 109, N-(2-(2-methoxyethoxy)ethyl)-3-(6-(methylamino)imidazo[1,2-a]pyridin-3-yl)benzenesulfonamide], the inhibition at 20 µM in test [1] lay within 50 to 89%.
`CNc1ccc2ncc(-c3cccc(S(=O)(=O)NC4CCOCC4)c3)n2c1` [Compound 110, 3-(6-(methylamino)imidazo[1,2-a]pyridin-3-yl)-N-(tetrahydro-2H-pyran-4-yl)benzenesulfonamide]: the inhibition at 20 µM in test [1] was above 90%. Besides, the concentration for half-maximal inhibition (IC50) in test [2] is below 1000 nM.
With `COC(=O)c1csc(-c2cnc3ccc(NC(=O)OC(C)(C)C)cn23)c1` [Compound 124, methyl 5-(6-((tert-butoxycarbonyl)amino)imidazo[1,2-a]pyridin-3-yl)thiophene-3-carboxylate], the inhibition at 20 µM in test [1] was above 90%. Further, the concentration for half-maximal inhibition (IC50) in test [2] lay in the range of 1000 to 10000 nM.
On the same counts, the results for `CC(C)(C)OC(=O)Nc1ccc2ncc(-c3cc(C(=O)NC4CCOCC4)cs3)n2c1` [Compound 125, tert-butyl (3-(4-((tetrahydro-2H-pyran-4-yl)carbamoyl)thiophen-2-yl)imidazo[1,2-a]pyridin-6-yl) carbamate] are above 90% and 1000 to 10000 nM.
For `CCOC(=O)c1ccc(-c2cnc3ccc(NC(=O)OC(C)(C)C)cn23)s1` [Compound 126, ethyl 5-(6-((tert-butoxycarbonyl)amino)imidazo[1,2-a]pyridin-3-yl)thiophen-2-carboxylate], in test [1], the inhibition at 20 µM is above 90%.
`CC(C)(C)OC(=O)Nc1ccc2ncc(-c3ccc(C(=O)NC4CCOCC4)s3)n2c1` [Compound 127, tert-butyl (3-(5-((tetrahydro-2H-pyran-4-yl)carbamoyl)thiophen-2-yl)imidazo[1,2-a]pyridin-6-yl)carbamate]: the inhibition at 20 µM in test [1] fell in the range of 50 to 89%.
In test [1], `COCCOCC(=O)Nc1cccc(-c2cnc3ccc(N)cn23)c1` [Compound 128, N-(3-(6-aminoimidazo[1,2-a]pyridin-3-yl)phenyl)-2-(2-methoxyethoxy)acetamide] came in with an inhibition at 20 µM above 90%. Also, the half-inhibitory concentration (IC50) in test [2] was in the range of 1000 to 10000 nM.
`COCCOCCNC(=O)c1cccc(-c2cnc3ccc(N(C)C(=O)OC(C)(C)C)cn23)c1` [Compound 133, tert-butyl (3-(3-((2-(2-methoxyethoxy)ethyl)carbamoyl)phenyl)imidazo[1,2-a]pyridin-6-yl)(methyl)carbamate] registered an inhibition at 20 µM in test [1] of 50 to 89%.
`CN(C(=O)OC(C)(C)C)c1ccc2ncc(-c3cccc(C(=O)NC4CCOCC4)c3)n2c1` [Compound 135]: the inhibition at 20 µM in test [1] was in the range of 50 to 89%.
`CC(C)(C)OC(=O)Nc1ccc2ncc(C(=O)NCCOCCOCCNC(=O)c3cnc4ccc(NC(=O)OC(C)(C)C)cn34)n2c1` [Compound 139] displayed an inhibition at 20 µM in test [1] of 50 to 89%.
Consider `CN(C(=O)C(F)(F)F)c1ccc2ncc(NC(=O)COCCOCCOCC(=O)Nc3cnc4ccc(N(C)C(=O)C(F)(F)F)cn34)n2c1` [Compound 142, N,N′-(3,3′-((2,2′-((oxybis(ethane-2,1-diyl))bis(oxy))bis (acetyl))bis(azadialkyl))bis(imidazo[1,2-a]pyridin-6,3-diyl))bis(2,2,2-trifluoro-N-methylacetamide)], for which, in test [1], the inhibition at 20 µM is above 90%.
In the case of `CN(C(=O)OC(C)(C)C)c1ccc2ncc(-c3cccc(NC(=O)CN4CCOCC4)c3)n2c1` [Compound 147], the inhibition at 20 µM in test [1] is above 90%.
Same read-out and setting: the figure for `CN(C(=O)OC(C)(C)C)c1ccc2ncc(-c3cccc(NC(=O)CN4CCC(O)C4)c3)n2c1` (centres unmarked) [Compound 148] is above 90%.
Compound `CN(C(=O)C1CC1)c1ccc2ncc(-c3cccc(NC(=O)C4CCOCC4)c3)n2c1` [Compound 307] had an IC50 in test [2] below 1000 nM. Also, the 50% effective concentration (EC50) in test [3] lay in the range of 1000 to 10000 nM.
